{"source": "patent US20230002400A1", "about": "“AMORPHOUS FORM OF NITROGEN-CONTAINING TRICYCLIC COMPOUND AND USE THEREOF” (SUNSHINE LAKE PHARMA CO., LTD., priority 2019, published 2023)", "key": {"[1]": {"test": "Stability test: high temperature test (60° C.)", "type": "physicochemical", "description": "(1) High temperature test: A batch of the test sample was taken into a flat weighing bottle, divided into ≤5 mm thick thin layer. The sample was placed at 60° C. for 30 days. The sample was then taken on days 5, 10, and 30, and the change of the sample's color was observed. The purity of the sample was detected by HPLC, and the structure of the sample was analyzed by X-ray powder diffraction, the change of X-ray powder diffraction in high temperature test was substantially shown in FIG. 4."}, "[2]": {"test": "Stability test: high humidity test (25° C., RH 90% ±5%)", "type": "physicochemical", "conditions": "for Appearance / Purity (%): High humidity 25° C., RH 90% ±5%", "description": "(2) High humidity test: A batch of the test sample was taken into the flat weighing bottle, divided into <5 mm thick thin layer. The sample was placed at 25° C. and RH for 90% ±5% for 30 days. The sample was then taken on days 5, 10, and 30, and the change of the sample's color was observed. The purity of the sample was detected by HPLC, and the structure of the sample was analyzed by X-ray powder diffraction, the change of X-ray powder diffraction in high humidity test was substantially shown in FIG. 5."}, "[3]": {"test": "Stability test: light test (light box with UV)", "type": "physicochemical", "conditions": "for Appearance / Purity (%): Light (with UV)", "description": "(3) Light test: A batch of the test sample was taken into the flat weighing bottle, divided into ≤5 mm thick thin layer. The sample was placed in an opened light box (with UV) at the illuminance 4500±5001x, UV light ≥0.7w/m2 for 30 days. The sample was then taken on days 5, 13, and 30, and the change of the sample's color was observed. The purity of the sample was detected by HPLC, and the structure of the sample was analyzed by X-ray powder diffraction, the change of X-ray powder diffraction in light test was substantially shown in FIG. 6."}, "[4]": {"test": "Hygroscopicity test by dynamic moisture adsorption device", "type": "physicochemical", "conditions": "relative humidity of 80%", "description": "The description of the hygroscopic feature and the definition of the hygroscopic weight gain (Chinese Pharmacopoeia 2015 edition, Appendix 9103 Guidelines for Drug Hygroscopicity Tests, experimental conditions: 25° C. ±1° C., 80% ±2% relative humidity) are as described in the table below.\nAn appropriate amount of the test sample was taken and the hygroscopicity of the test sample was tested by dynamic moisture adsorption device. […] That is, the amorphous form of the invention is not easily deliquescent under the influence of high humidity."}, "[5]": {"test": "Pharmacokinetic test in Beagle dogs, oral capsules", "type": "in vivo", "conditions": "dog, plasma, male Beagle dogs, 5 mg/kg orally", "description": "The amorphous form of compound having Formula (I) named 2-((5-cyclopropyl-3-(2,6-di chl orophenyl)i soxazol-4-yl)methoxy)-10H-spiro[b enzo[6,7]oxepino[3,2-b]pyridine-11,1′-cyclopropane]-7-carboxylic acid was filled into capsules, which was for oral administration.\n8-12 kg Male Beagle dogs were given 5 mg/kg test sample orally, with 3 animals in each group. Blood was taken at time points of 0.25, 0.5, 1.0, 2.0, 4.0, 6.0, 8.0, 12 and 24 h. Standard curve was plotted based on concentrations of the samples in a suitable range, the concentration of the test sample in the plasma sample was measured and quantified by AB SCIEX API4000 LC-MS/MS at MRM mode. Pharmacokinetic parameters were calculated according to drug concentration -time curve using a noncompartmental model by WinNonLin 6.3 software."}}}
{"compound": "O=C(O)c1ccc2c(c1)Oc1ccc(OCc3c(-c4c(Cl)cccc4Cl)noc3C3CC3)nc1C1(CC1)C2", "note": "[The amorphous form, 2-((5-cyclopropyl-3-(2,6-dichlorophenyl)isoxazol-4-yl)methoxy)-10H-spiro[benzo[6,7]oxepino[3,2-b]pyridine-11,1′-cyclopropane]-7-carboxylic acid]", "values": [{"measurement": "Appearance", "setting": "[1]; 0 Day (start of stability test)", "result": "White"}, {"measurement": "Purity (%)", "setting": "[1]; 0 Day (start of stability test), HPLC", "result": 99.66, "unit": "%"}, {"measurement": "Appearance", "setting": "[1]; High temperature 60° C., 5 Days", "result": "White"}, {"measurement": "Purity (%)", "setting": "[1]; High temperature 60° C., 5 Days, HPLC", "result": 99.65, "unit": "%"}, {"measurement": "Appearance", "setting": "[1]; High temperature 60° C., 10 Days", "result": "White"}, {"measurement": "Purity (%)", "setting": "[1]; High temperature 60° C., 10 Days, HPLC", "result": 99.48, "unit": "%"}, {"measurement": "Appearance", "setting": "[1]; High temperature 60° C., 30 Days", "result": "White"}, {"measurement": "Purity (%)", "setting": "[1]; High temperature 60° C., 30 Days, HPLC", "result": 99.60, "unit": "%"}, {"measurement": "changes of appearance, chemical purity and crystal form", "setting": "[1]; high temperature, up to 30 days, HPLC, XRPD", "result": "no obvious changes"}, {"measurement": "Appearance", "setting": "[2]; 5 Days", "result": "White"}, {"measurement": "Purity (%)", "setting": "[2]; 5 Days, HPLC", "result": 99.64, "unit": "%"}, {"measurement": "Appearance", "setting": "[2]; 10 Days", "result": "White"}, {"measurement": "Purity (%)", "setting": "[2]; 10 Days, HPLC", "result": 99.61, "unit": "%"}, {"measurement": "Appearance", "setting": "[2]; 30 Days", "result": "White"}, {"measurement": "Purity (%)", "setting": "[2]; 30 Days, HPLC", "result": 99.63, "unit": "%"}, {"measurement": "changes of appearance, chemical purity and crystal form", "setting": "[2]; high humidity, up to 30 days, HPLC, XRPD", "result": "no obvious changes"}, {"measurement": "Appearance", "setting": "[3]; 5 Days", "result": "White"}, {"measurement": "Purity (%)", "setting": "[3]; 5 Days, HPLC", "result": 99.62, "unit": "%"}, {"measurement": "Appearance", "setting": "[3]; 13 days", "result": "White"}, {"measurement": "Purity (%)", "setting": "[3]; 13 days, HPLC", "result": 99.63, "unit": "%"}, {"measurement": "Appearance", "setting": "[3]; 30 days", "result": "White"}, {"measurement": "Purity (%)", "setting": "[3]; 30 days, HPLC", "result": 99.57, "unit": "%"}, {"measurement": "changes of appearance, chemical purity and crystal form", "setting": "[3]; light, up to 30 days, HPLC, XRPD", "result": "no obvious changes"}, {"measurement": "hygroscopic weight gain", "setting": "[4]; after equilibrium", "result": "less than 2%"}, {"measurement": "hygroscopic feature", "setting": "[4]; criterion for the hygroscopic weight gain", "result": "slightly hygroscopic"}, {"measurement": "AUC(0-t)", "setting": "[5]", "result": 765, "unit": "ng·h/mL"}, {"measurement": "Cmax", "setting": "[5]", "result": 268, "unit": "ng/mL"}, {"measurement": "Tmax", "setting": "[5]", "result": 2, "unit": "h"}]}
